The values that follow come from patent publication US7781423B2, “Compounds to promote regeneration of bone marrow” (priority 2007, dated 2010).

The test system of data set [1] is NIH 3T3, A431, MCF-7, MEL-28, HT-29, A549, T47D, CaOV-3, ZR-75-1, HTB-157, MEL-24, Hep G2, CaCO-2, MB-231 cells. Put plainly: MTT survival/proliferation experiments on the panel of normal and cancer cells. Format: cell-based, human, mouse. Particulars: serum-free (survival) or 2% serum (proliferation); 72 hours; lower and higher (50 μM) concentration. As to the method:
The NIH 3T3 (normal) mouse fibroblast, A431 human epidermoid adenocarcinoma, and MCF-7 human breast cancer cells were cultured in DMEM medium containing 10% FBS. The MEL-28 human melanoma cells were cultured in MEM medium containing 10% FBS. The HT-29 human colon adenocarcinoma cells were cultured in McCoy's 5a medium containing 10% FBS. The A549 human lung carcinoma cells were maintained in Ham's F12K medium containing 10% FBS. T47D cells were cultured in 12-well plates in RPMI 1640 medium supplemented with 0.2 IU bovine insulin and 10% FBS. CaOV-3 human ovarian cancer cells were cultured in DMEM containing 10% FBS. ZR-75-1 human estrogen receptor-positive breast cancer cells were maintained in RPMI 1640 medium supplemented with 10% FBS. HTB-157 human fetal fibroblasts, MEL-24 human malignant melanoma cells, Hep G2 human hepatoblastoma cells, and CaCO-2 human colon adenocarcinoma cells were maintained in Eagles's MEM containing 10% FBS. MB-231 human estrogen receptor-negative breast cancer cells were maintained in Leibovitz's L-15 medium supplemented with 10% FBS.
In the actual experiments, cells were seeded into 96-well plates and cultivated up to either ˜70-90% confluency (survival experiments) or 20-25% confluency (proliferation experiments). Then the medium was changed for serum-free medium (survival experiment) or 2% serum-containing medium (proliferation experiment). […]

Data set [2] has as its system lethally irradiated mice that received bone marrow transplantation. Put plainly: Blood profile after bone marrow transplantation following lethal irradiation. Particulars: for Platelets / RBC / WBC: CCompound1 4.5 mg per kg i.p. daily, day -3 to day +3. Format: in vivo, C57B1 mice. The protocol:
Twelve week old female C57B1 mice were used for the experiments. Each drug was administered intraperitoneally once a day for 5 consecutive days. In the second, third, fourth and fifth groups, mice were administered 120 mg/kg of cyclophosphamide (CP). In a third group, mice were also administered 4.5 mg/kg of CCompound1. In a fourth group, mice were also administered 4.5 mg/kg of CCompound3. In a fifth group, mice were also administered 2.0 mg/kg of CCompound26. In the first group, mice received no treatment. Each group included 5 animals. After 3 hours of the last treatments (on day 5), blood samples were collected from the ocular venous plexus of ether-anesthetized mice by retro-orbital venipuncture in heparanized tubes. Complete cell counts (RBC, red blood cell; WBC, white blood cell; PTL, platelet) were determined with a Sysmex F-800 hematology analyzer (To a Medical Electronics Co. LTD, Kobe, Japan). All data shown in Table 2 are the average of 5 independent determinations.
In this experiment the goal was to determine if CCompound1 can enhance expansion of transplanted bone marrow cells infused after applying a lethal dose of whole body irradiation (which reduces the number of bone marrow cells by more than 90%). C57B1 female mice (10-14 weeks old) were subjected to 900 cGy whole body irradiation from a ^137Cesium source which was followed within 6 hours by infusion of one million donor nucleated bone marrow cells by tail vein injection. Starting 3 days before irradiation, animals received daily 4.5 mg per kg of CCompound1 via intraperitoneal injection; this treatment also was provided on day 0 and once daily for the subsequent 3 days after irradiation. In another group, mice were injected only with physiological saline.
Bone marrow cells were collected on day 0 from non-irradiated animals as well as on days 6, 14, 28 and 42 after irradiation and bone marrow transplantation. Nucleated bone marrow cells were quantified and CFU-GM assay was performed as described in Example 3 while blood profiling was performed as described in Example 1. For each group, on the indicated days bone marrow and blood samples were collected from 3 animals. Each value presented in Table 5 and Table 6 represents the mean±st. dev. of 3 samples (derived from 3 animals).

The test system of a further data set is healthy mice. In words: Toxicity in healthy mice. The data set is classed as in vivo. Particulars: for well tolerated maximal dose: mice weighing about 25 g. As to the method:
Accordingly, a well tolerated maximal dose for CCompound1 or CCompound3 in mice (weighing about 25 g) is […] which corresponds to a dose of 4.6 mg/kg. Therapeutically effective concentrations of CC compounds in humans will exert significant promoting effects on bone marrow regeneration without causing toxicity in other normal healthy tissues.

The mark [3] stands for this setting: after bone marrow transplantation.
[4] abbreviates: day 6 after 900 cGy irradiation and bone marrow transplantation.
Where [5] appears, read: day 14 after 900 cGy irradiation and bone marrow transplantation.
Setting [6] is: day 28 after 900 cGy irradiation and bone marrow transplantation.
The mark [7] stands for this setting: day 42 after 900 cGy irradiation and bone marrow transplantation.
[8] abbreviates: single 450 μmole (about 4.6 mg/kg) or daily 400 μmole for 5 consecutive days.

For `Cc1c(OCC(O)C[N+](C)(C)C)cc2c(=O)c3ccccc3sc2c1C.[Cl-]` (centres unmarked) [CCcompound1, [3-(3,4-Dimethyl-9-oxo-9H-thioxanthen-2-yloxy)-2-hydroxypropyl]trimethyl-ammonium chloride], the “enhancement of survival or proliferation” value in data set [1] was “Neither the lower nor the higher concentration of CCompound1 enhanced the survival or proliferation”. For the same compound, in data set [2] (setting [3]), the “time to recover platelet count similar to about 100,000 per 1 μl from transplanted bone marrow stem cells” value is reported as “less than 6 days” and the “time to recover white blood cell count similar to 2,500 per 1 μl from transplanted bone marrow stem cells” value lay in the range of 9 to 11 days. In addition, in data set [2] (after lethal irradiation and bone marrow transplantation), the “time to about 50% recovery of white blood cells” value is given as “about 14 days”. Besides, in data set [2] (setting [4]), the Platelets is 243 ± 19 ×10^3/mm^3, the RBC is reported as 4.8 ± 1.2 ×10^6/mm^3 and the WBC is recorded as 1.6 ± 0.3 ×10^3/mm^3. In addition, in data set [2] (setting [5]), the Platelets is on record as 438 ± 112 ×10^3/mm^3, the RBC was 9.1 ± 1.1 ×10^6/mm^3 and the WBC is given as 3.3 ± 0.4 ×10^3/mm^3. For the same compound, in data set [2] (setting [6]), the Platelets is recorded as 716 ± 138 ×10^3/mm^3, the RBC is 10.9 ± 1.3 ×10^6/mm^3 and the WBC is 5.2 ± 0.8 ×10^3/mm^3. In data set [2] (setting [7]), the Platelets is 776 ± 112 ×10^3/mm^3, the RBC was 11.0 ± 0.7 ×10^6/mm^3 and the WBC is 6.6 ± 0.4 ×10^3/mm^3. In the data set with healthy mice, the “well tolerated maximal dose” value was determined as 450 μmole/animal. For the same compound, in the data set on healthy mice (corresponds to 450 μmole/animal), the “well tolerated maximal dose” value is listed as 4.6 mg/kg. Also, in the data set on healthy mice (setting [8]), the “change in the composition of various blood constituents” value was “did not cause any significant change”; the “pathological alterations in the liver, brain, kidney, heart, spleen, intestine, and lung” value was “did not induce significant pathological alterations”.
